Where no end group is shown, it is not given here. [ ]: non-standard residue; d: D form. sY = N[C@@H](Cc1ccc(OS(=O)(=O)O)cc1)C(=O)O
Key:
BNGR-A9 = assay: cAMP ELISA in BNGR-A9-expressing HEK293 cells; format: cell-based, Bombyx mori; conditions: 1 μM, 15 min, IBMX pretreatment (300 μM, 1 h)
Method: 1. Measurement of cAMP accumulation
Cells were seeded in 24-well plates and incubated overnight. Prior to treatment, cells
were pre-treated with the phosphodiesterase inhibitor IBMX (300 μM) for 1 hour.
Subsequently, cells were treated with different Bombyx neuropeptides for 15 minutes.
The reaction was terminated by removing the medium, followed by the addition of
ice-cold PBS and a single wash. Cell lysis was performed, and cAMP formation was
assessed using a competitive binding technique based on an enzyme-linked
immunosorbent assay (ELISA) (Parameter cAMP assay, R&D, Minneapolis, USA)
following the manufacturer's instructions. The results were expressed as the fold
change in cAMP concentration compared to the control concentration in the
2. Determination of Glucose of hemolymph
Silkworm larvae were anesthetized by cooling on ice, after which hemolymph was
collected using a micropipette from an incision made at the abdominal leg.
Approximately 5 mg of phenylthiourea (to achieve a final concentration of 2.5% w/v)
was added to the hemolymph in a 1.5 ml Eppendorf tube to inhibit clotting.
Hemolymph samples from 10 insects were then centrifuged at 12,000 rpm for 10
minutes at 4 °C to sediment any particulates. The glucose concentration in the
hemolymph was determined using a glucose oxidase-peroxidase kit (Shanghai […]
by stimulation with 1μM BmnsSK or BmsSK for 15 min, and the cAMP level was determined […]

[1] = tested on: ERK phosphorylation in silkworm brains; assay: ERK phosphorylation (western blot), silkworm larval brains ex vivo; set-up: species or system Bombyx mori
Method: HEK293 cells with Flag-BNGR-A9 were exposed to 100 nM BmsSK for different durations and then lysed using RIPA buffer (Beyotime, China). For ex vivo assays, brains from 5th instar silkworm larvae were treated with BmsSK (100 nM) for 1, 2, or 8 h, either with a pre-treatment of Gαq inhibitor FR900359 for 30 min or without it. After treatment, samples were lysed, homogenized, and their protein concentrations were determined with a BCA protein kit (Takara, Japan). For western blot analysis, equal amounts of protein lysate were used. Protein expression was analyzed using specific primary antibodies: rabbit monoclonal antibodies for total and phosphorylated ERK from Cell Signaling Technology (MA, USA).

[2] = Feeding behavior assay: larval body weight; format: in vivo, Bombyx mori; conditions: injected daily, final concentration 10 nM, 5th instar larvae, days 2 and 4 post-injection vs control (HBM)
Method: (§1) Synchronized larvae of the first day of 5th instar were chosen for feeding behavior assay. Silkworms were starved for 12 h to standardize the starting level. To knock down bngr-a9, 5 μg dsRNA/BNGR-A9 or dsRNA/EGFP was injected into the abdomen of the larvae at the indicated time using a 10 μl microsyringe. For silkworms, both treated and untreated with dsRNA, synthetic SK peptide (at a final concentration of 10 nM) was injected daily starting from the second day of the fifth instar. For each trial, twenty synchronized P50 larvae were used. After injection, the silkworm larvae were fed with enough mulberry leaves three times a day and maintained under standard conditions. Larval body weights and food consumption were measured every other day until pupation.

[3] = Feeding behavior assay: food consumption; format: in vivo, Bombyx mori; conditions: injected daily, final concentration 10 nM, 5th instar larvae; days 2 and 4 post-injection vs control (HBM)
Method: Double-stranded RNAs were synthesized using MEGAscript RNAi T7 Kit (Ambion, CA, USA) following the manufacturer’s instructions. Templates for in vitro transcription were generated by PCR using the primers containing the T7 polymerase promoter sequence at their 5′ ends, as listed in Table S1. For each 20-μl reaction, 1 μg PCR product was added as the template. Following transcription, the reaction mixture was purified by phenol/chloroform extraction and ethanol precipitation. The resulting dsRNA products were diluted with nuclease-free water to achieve the desired concentration (final volume of 2–5 μl).
as §1

BmsSK: Bombyx mori sulfated-sulfakinin, synthetic; sulfated version of GDDTFDD^8YGHLRF-NH2 (GDDTFDD[sY]GHLRF-NH2; N-terminus assumed; SMILES CC(C)C[C@H](NC(=O)[C@H](Cc1c[nH]cn1)NC(=O)CNC(=O)[C@H](Cc1ccc(OS(=O)(=O)O)cc1)NC(=O)[C@H](CC(=O)O)NC(=O)[C@H](CC(=O)O)NC(=O)[C@H](Cc1ccccc1)NC(=O)[C@@H](NC(=O)[C@H](CC(=O)O)NC(=O)[C@H](CC(=O)O)NC(=O)CN)[C@@H](C)O)C(=O)N[C@@H](CCCNC(=N)N)C(=O)N[C@@H](Cc1ccccc1)C(N)=O)
Intracellular cAMP level (BNGR-A9): remained unchanged
Time of peak ERK1/2 phosphorylation ([1]; 5th instar silkworm brains, 100 nM BmsSK for 1, 2 or 8 h): 2 h
ERK1/2 phosphorylation ([1]; silkworm brains, 100 nM BmsSK): quick and dose-dependent increase in ERK1/2 phosphorylation
Body weight [2]: weight loss
Body weight ([2]; listed as synthetic sulfated- SK): notably declined
Food consumption [3]: notably declined

From publication PMC11190223, “Identification of sulfakinin receptor regulating feeding behavior and hemolymph trehalose homeostasis in the silkworm, Bombyx mori” (Scientific Reports, 2024)
